From patent US11673865B2, “Cyclooctynes for click chemistry” (Massachusetts Institute of Technology, priority 2021, dated 2023)

Legend:
Type in all cases: physicochemical
[1] = Cyclooctyne stability in the presence of glutathione; conditions: 25 μM
Method: The stability of ABC in the presence of biological nucleophiles was determined using a biomimetic concentration of glutathione, which contains amino, carboxyl, and sulfhydryl groups. DIBAC was used as a comparator.
A solution of compound 3 (25 μM) or DIBAC (25 μM) was prepared in phosphate-buffered saline containing reduced glutathione (1.0 mM), oxidized glutathione (0.2 mM), and DMSO (2% v/v). The solutions were incubated at 37° C. (FIG. 6), and HPLC analyses were carried out every hour to determine the remaining concentration of dipolarophile. Subsequently, plots of In(concentration) versus time were prepared to calculate values of kobs for the degradation. These values were divided by the concentration of reduced glutathione to obtain second-order rate constants for the degradation with respect to reduced glutathione.

[2] = 1,3-dipolar cycloaddition kinetics by HPLC; conditions: CH2Cl2, 26° C., triplicate
Method: (§1) Kinetics General Method A. Stock solutions at the specified concentrations in the specified solvents were prepared for each dipole and dipolarophile. Aliquots (0.5 mL) of dipole and dipolarophile were mixed, and reactions were monitored by HPLC with aliquots injected at the timepoints shown in the kinetic traces below. Each reaction was carried out in triplicate. The concentration of remaining dipolarophile was obtained from its corresponding peak in the chromatogram monitored at 280 nm. Second-order rate constants were calculated from the slope of the plot of [dipolarophile]^−1 versus time.
Reaction of 2-Azido-N-methyl-N-(phenylmethyl)acetamide with compound 3 in CH2Cl2. Kinetics General Method A was followed using stock solutions at 80 μM and resulting in final reaction concentrations of 40 μM 2-Azido-N-methyl-N-(phenylmethyl)acetamide and 40 μM compound 3.

[3] = 1,3-dipolar cycloaddition kinetics by HPLC; conditions: CH2Cl2 (FIG. 1)
Method: To assess the effect of the putative hydrogen bond, the reactivity of compound 3 and DIBO with ethyl diazoacetate, which lacks a hydrogen bond donor, was tested. The rate constant for the reaction of compound 3 with ethyl diazoacetate was nearly 200-fold lower than that with N-benzylazidoacetamide. This decrease is substantially greater than the 4-fold decrease in rate constant for the reaction of these same dipoles with DIBO (FIG. 1).
as §1
Reaction of ethyl diazoacetate with compound 3 in CH2Cl2. Kinetics General Method A was followed using stock solutions at 400 μM and resulting in final reaction concentrations of 200 μM ethyl diazoacetate and 200 μM compound 3.

[4] = 1,3-dipolar cycloaddition kinetics by HPLC
Method: (§2) The rates of reaction for the 1,3-dipolar cycloaddition of dipoles N-benzylazidoacetamide and N-benzyldiazoacetamide with compound 3 in both aprotic (CH2Cl2) and protic solvents (MeOH and PBS containing 2% v/v DMSO) were measured. The depletion of compound 3by using HPLC and second-order rate constants were calculated from the slope of a plot of [compound 3]^−1 versus time. As a benchmark, the rate of the reaction of DIBO with each dipole was also measured.
as §1
Reaction of N-benzyldiazoacetamide with DIBO in CH2Cl2. Kinetics General Method A was followed using stock solutions at 2 mM and resulting in final reaction concentrations of 1 mM N-benzyldiazoacetamide and 1 mM DIBO.
Reaction of N-benzyldiazoacetamide with compound 3 in CH2Cl2. […]

[5] = 1,3-dipolar cycloaddition kinetics by HPLC; conditions: with N-benzylazidoacetamide; CH2Cl2 (FIG. 1)
Method: as §2, §1
Reaction of N-benzylazidoacetamide with DIBO in CH2Cl2. Kinetics General Method A was followed using stock solutions at 2 mM and resulting in final reaction concentrations of 1 mM N-benzylazidoacetamide and 1 mM DIBO.
Reaction of N-benzylazidoacetamide with compound 3 in CH2Cl2. […]

[6] = 1,3-dipolar cycloaddition kinetics by HPLC; conditions: CH2Cl2, 26° C., triplicate; remark: listed apart in the source
Method: as §1
Reaction of compound 9 with compound 3 in CH2Cl2. Kinetics General Method A was followed using stock solutions at 80 μM and resulting in final reaction concentrations of 40 μM 2-Diazo-N-methyl-N-(phenylmethyl)acetamide and 40 μM compound 3.

Compound | second-order rate constant of degradation with respect to reduced glutathione [1] [M⁻¹ s⁻¹] | second-order rate constant k [2] [M⁻¹ s⁻¹] | decrease in rate constant with ethyl diazoacetate relative to N-benzylazidoacetamide [3] [fold] | rate increase of N-benzyl diazoacetamide over N-benzyl azidoacetamide ([4]; diazoacetamide over azidoacetamide) [fold] | rate increase relative to DIBO ([4]; with N-benzyl diazoacetamide, CH2Cl2 (FIG. 1)) | rate increase relative to DIBO [5] [fold] | second-order rate constant k [6] [M⁻¹ s⁻¹] | second-order rate constant of degradation with respect to reduced glutathione ([1]; 1 mM reduced and 0.2 mM oxidized glutathione in PBS containing DMSO (2% v/v), 37° C., HPLC) [M⁻¹ s⁻¹]
Clc1ccc2c(c1)CCc1cccnc1C#C2 [compound 3, 2-Azabenzo-8-chlorobenzocyclooctyne] | 0.10 | 1.0 | ~200 | ~20 | 1,200 fold | 30 | 0.75 | 
dibenzoazacyclooctyne [DIBAC, reference compound] |  |  |  |  |  |  |  | 0.05
